Experimental findings from US6048887A, “Substituted pyrroles” (Hoffmann-La Roche Inc., priority 1999, dated 2000) are described below.

Format in all cases: cell-based
Assay [1] concerns MDA-MB-435. The assay is described as follows: Antiproliferative Activity In Cell Line MDA-MB-435 (MTT). The settings on record: Homo sapiens, average of at least three separate experiments. The protocol: (§1) The estrogen receptor negative epithelial breast carcinoma line (MDA-MB-435) was purchased from American Type Cell Culture Collection (ATCC; Rockville, Md.) and was grown in the medium recommended by ATCC. For analysis of the effect of the test compounds on growth of these cells, the cells were plated at 2000 cells per well in a 96-well tissue culture plate ("test plate"), and were incubated overnight at 37° C. with 5% CO2. The next day, the test compounds were dissolved in 100% dimethyl sulfoxide (DMSO) to yield a 10 mM stock solution. Each compound was diluted with sterile distilled water to 1 mM and then was added to triplicate wells of a 96-well "master plate" containing medium in a sufficient quantity to yield a final concentration of 40 μM. The compounds were serially diluted in medium in the "master plate." One-fourth final volume of the diluted compounds was transferred to duplicate "test plates." DMSO was added to a row of "control cells" such that; the final concentration of DMSO in each well was 0.1%. The "test plates" were returned to the incubator, and 3 days post addition of test compound, one "test plate" was analyzed as described below. Similarly, 5 days after addition of test compound, the second "test plate" also was analyzed as described below.
(§2) 3-(4,5-dimethylthiazole-2-yl)-2,5-diphenyl-2H-tetrazolium bromide (thiazolyl blue; MTT) was added to each well to yield a final concentration of 1 mg/ml. The plate was then incubated at 37° C. for 3 hours. The MTT-containing medium was then removed and 50 μl 100% ethanol was added to each well to dissolve the resulting formazan metabolite. […] Absorbencies were read in a microtiter plate reader (Molecular Dynamics) at a wavelength of 570 nm with a 650 nm reference. Percent inhibition was calculated by subtracting the blank from all wells, then subtracting the division of the average absorbance of each test triplicate by the average of the controls from 1.00. Inhibitory concentrations (IC50 and IC90) were determined from the linear regression of a plot of the logarithm of the concentration versus the percent inhibition.

The test system of assay [2] is SW480. The assay can be described thus: Antiproliferative Activity In Cell Line SW480 (MTT). The settings on record: Homo sapiens, 144 h, 6 days post addition, average of at least three separate experiments. As for the experimental part: [The procedure below names another cell line; the source says it served here with some conditions changed.] as §1
as §2, with “inhibition. […]” for “inhibition.”

For assay [3], the system named is MDA-MB-435 cells. The assay is described as follows: Effect Of Test Compounds On Cell Cycle (propidium iodide, FACS). The settings on record: for % Of Cells In Each Cell Cycle Phase: G1 / % Of Cells In Each Cell Cycle Phase: G2/M / % Of Cells In Each Cell Cycle Phase: S: day 1 post addition; for effect on cell cycle (in words): statement in words, summarizing Tables I-IV. As for the experimental part: For analysis of the effect of the compounds on cell cycle progression, MDA-MB-435 cells (ATCC; Rockville, Md.) were plated at 1×10^6 cells/10 mls per 10 cm dish in the following growth medium: RPMI 1640+10% Heat-Inactivated Fetal Bovine Serum, 2 mM L-glutamine and 50 U/ml pen-strep (all from GIBCO/BRL, Gaithersburg, Md.). The cells were incubated overnight at 37° C. with 5% CO2. The next day, 10 μl of each of the compounds to be tested, in a 100% DMSO solution, was added to individual dishes to obtain /1000× final concentration of the stock solution. In addition, 10 μl 100% DMSO was added to a control dish. The final concentration of DMSO in all plates, including the control, was 0.1%. The plates were returned to the incubator.
Thereafter, at various periods of time, the medium in each plate was removed to a 50 ml centrifuge tube. The cell layer remaining in the dish was then washed with 5 ml of phosphate buffered saline (PBS; GIBCO/BRL). The PBS was removed and combined with the medium in the appropriate tube. The cells were trypsinized for 5 minutes at 37° C., and the solution was collected and combined with the medium and PBS in the appropriate tubes. The tubes were then centrifuged for 5 minutes at 1200 rpm. The cells were fixed by removing the supernatant, tapping the tube to distribute the pellet, then adding 5 mls of cold 70% ethanol while vortexing gently. The cells were then stored at -20° C. for>24 hours.
The cell-containing tubes were taken out of freezer and allowed to sit at room temperature for 20-30 minutes. The tubes were centrifuged at 3000 rpm for 5 minutes. The supernatant was removed, the pellets were washed with 5 ml PBS, and the tubes were centrifuged as above. Subsequently, the supernatant was removed, and the pellet was resuspended in 0.5 ml PBS. Thereafter, 0.5 ml RNAse A (1 mg/ml in PBS) was added to each tube, and the tubes were incubated at 37° C. for 15 minutes. 100 μl propidium iodide (Sigma, St. Louis, Mo.) (1 mg/ml in PBS) was added to each tube, and the tubes were then incubated at room temperature for 2-3 minutes. Each resulting solution was passed through a filter cap tube (Becton Dickinson, San Jose, Calif., #2235).
Samples were read in a FACSort machine (Becton-Dickinson) using the manufacturer's CellQUEST program, and analyzed with the manufacturer is ModFIT software. This measurement provides an indication of the percent of cells in each of the following phases: G0/G1, DNA synthesis (S) and G2/M phases.
The results of a cell cycle progression experiment analyzed at day 1 post addition of test compounds I, II and III are summarized below in Table IV.

Assay [4] relates to HCT-116. The assay can be described thus: Antiproliferative Activity In Cell Line HCT-116 (MTT). The settings on record: Homo sapiens, 96 h, 4 days post addition, average of at least three separate experiments. As for the experimental part:
[The procedure below names another cell line; the source says it served here with some conditions changed.] as §1
as §2, with “inhibition. […]” for “inhibition.”

One may read the IC50 as the midpoint of a concentration-inhibition curve. For `Cn1cc(C2=C(c3c[nH]c4ccccc34)C(=O)NC2=O)c2ccc([N+](=O)[O-])cc21` [Compound I, 3-(1H-Indol-3-yl)-4-(1-methyl-6-nitro-1H-indol-3-yl)-pyrrole-2,5-dione], the IC50 was determined as 30 nM in assay [1], 200 nM in assay [2] and 170 nM in assay [4]. The results for the “% Of Cells In Each Cell Cycle Phase: G1” value in assay [3] (0.01 μM), in assay [3] (0.03 μM) and in assay [3] (0.1 μM) were 44.95%, 45.30% and 8.27%, respectively. For the same compound, the “% Of Cells In Each Cell Cycle Phase: G2/M” value in assay [3] (0.01 μM) was 14.00%; in assay [3] (0.03 μM), 20.03%; in assay [3] (0.1 μM), 66.52%. Also, the “% Of Cells In Each Cell Cycle Phase: S” value in assay [3] (0.01 μM) is 41.04%; in assay [3] (0.03 μM), 34.67%; in assay [3] (0.1 μM), 25.21%. In addition, the “effect on cell cycle (in words)” value in assay [3] is recorded as “cause an accumulation of cells in the G2/m phase of the cell cycle”.
As to `Cn1cc(C2=C(c3cn(CO)c4ccccc34)C(=O)NC2=O)c2ccc([N+](=O)[O-])cc21` [Compound II, 3-(1-Hydroxymethyl-1H-indol-3-yl)-4-(1-methyl-6-nitro-1H-indol-3-yl)-pyrrole-2,5-dione], the IC50 in assay [1] is 50 nM; in assay [2], 220 nM; in assay [4], 230 nM. In addition, the entries for the “% Of Cells In Each Cell Cycle Phase: G1” value in assay [3] (0.03 μM), in assay [3] (0.1 μM) and in assay [3] (0.3 μM) were 45.45%, 15.54% and 1.11%, respectively. Also, the “% Of Cells In Each Cell Cycle Phase: G2/M” value in assay [3] (0.03 μM) amounted to 16.50%; in assay [3] (0.1 μM) it was 60.40%; in assay [3] (0.3 μM) it was 73.90%. Also, the results for the “% Of Cells In Each Cell Cycle Phase: S” value in assay [3] (0.03 μM), in assay [3] (0.1 μM) and in assay [3] (0.3 μM) were 38.06%, 24.06% and 24.99%, respectively. Moreover, the “effect on cell cycle (in words)” value in assay [3] is “cause an accumulation of cells in the G2/m phase of the cell cycle”.
With `Cn1cc(C2=C(c3c[nH]c4cc([N+](=O)[O-])ccc34)C(=O)NC2=O)c2ccccc21` [Compound III, 3-(1-Methyl-1H-indol-3-yl)-4-(6-nitro-1H-indol-3-yl)-pyrrole-2,5-dione], the results for the half-maximal inhibitory concentration (IC50) in assay [1], in assay [2] and in assay [4] were 600 nM, 1860 nM and 1660 nM, respectively. Also, the entries for the “% Of Cells In Each Cell Cycle Phase: G1” value in assay [3] (1 μM), in assay [3] (3 μM) and in assay [3] (10 μM) were 27.21%, 3.26% and 10.41%, respectively. For the same compound, the “% Of Cells In Each Cell Cycle Phase: G2/M” value in assay [3] (1 μM) was 42.60%; in assay [3] (3 μM) it was 47.99%; in assay [3] (10 μM), 54.34%. Also, the “% Of Cells In Each Cell Cycle Phase: S” value in assay [3] (1 μM) is 30.19%; in assay [3] (3 μM), 48.75%; in assay [3] (10 μM), 35.25%. For the same compound, the “effect on cell cycle (in words)” value in assay [3] is recorded as “cause an accumulation of cells in the G2/m phase of the cell cycle”.
